Experimental data published in paper PMC8066730, “Alteration of Anticancer and Protein-Binding Properties of Gold(I) Alkynyl by Phenolic Schiff Bases Moieties” (Pharmaceutics, 2021).

How the values were obtained:
[1] = test system: HOP-62 (non-small-cell lung cancer cell line); test: SRB cytotoxicity assay, HOP-62; format: cell-based, human; conditions: 3 days incubation, DMSO solutions
Procedure: (§1) The cells were obtained by the Egyptian Holding Company for Biological Products and Vaccines (VACSERA) and then maintained in the tissue culture unit. Cells were grown in RPMI-1640 medium, supplemented with 10% heat inactivated FBS, 50 units/mL of penicillin, and […] of streptomycin, and maintained in a humidified atmosphere with 5% carbon dioxide. The cells were kept as monolayer cultures by serial sub-culturing, using cell culture reagents from Lonza (Basel, Switzerland). The antitumor activities of the complexes were assessed against OVCAR-3 (ovarian carcinoma cancer) and HOP-62 (non-small-cell lung cancer) cell lines.
(§2) The sulforhodamine B (SRB) assay method was applied to determine the cytotoxicity, as described in the literature. Exponentially growing cells were collected using 0.25% Trypsin-EDTA and seeded in 96-well plates at 1000–2000 cells/well in RBMI-1640 supplemented medium. The cells were kept in the medium for 24 h and then incubated for 3 days with various concentrations of the gold compounds. Following 3 days of treatment, the cells were fixed with 10% Cl3CCOOH for 60 min at 4 °C. Wells were stained for 10 min at room temperature with 0.4% SRBC dissolved in 1% CH3COOH. The plates were air dried for 24 h, and the dye was dissolved in Tris-HCl for 5 min with shaking at 1600 rpm. The optical density of each well was evaluated spectrophotometrically at 564 nm with an ELISA microplate reader (ChroMate-4300, Orlando, FL, USA). The half […] inhibitory concentration (IC50) values were calculated from a Boltzmann sigmoidal concentration response curve using nonlinear regression fitting models (Graph Pad, Prism Version 9, San Diego, CA, USA).

[2] = test system: OVCAR-3 (ovarian carcinoma cancer cell line); test: SRB cytotoxicity assay, OVCAR-3; format: cell-based; conditions: for IC50: 3 days incubation, SRB, DMSO solutions
Procedure: as §1, §2

[3] = molecular target: human serum albumin (HSA) (Homo sapiens, UniProt P02768); test: HSA fluorescence quenching binding study; set-up: Kq (quenching rate constant): unit not given here; conditions: for n (number of binding sites) / Ksv (Stern–Volmer quenching constant) / Kq (quenching rate constant) / ∆G^0 (Gibbs free energy of binding to HSA): 295 K; for Ksv (Stern–Volmer quenching constant): HSA 32 µM, Tris-HCl/NaCl buffer pH 7.4, ca. 20% DMSO; for Kq (quenching rate constant): Ksv = Kq × τ0, τ0 = 7 ns; for ∆G^0 (Gibbs free energy of binding to HSA): calculated from Kb; for fold increase in HSA binding affinity on introducing the o-phenolic moiety: proceeding from 1 to 3 and 2 to 5; for fold enhancement in HSA binding affinity on replacing triphenylphosphine with tricyclohexylphosphine: proceeding from 1 to 2 and 3 to 5
Sequence of human serum albumin (HSA) (P02768 25-609): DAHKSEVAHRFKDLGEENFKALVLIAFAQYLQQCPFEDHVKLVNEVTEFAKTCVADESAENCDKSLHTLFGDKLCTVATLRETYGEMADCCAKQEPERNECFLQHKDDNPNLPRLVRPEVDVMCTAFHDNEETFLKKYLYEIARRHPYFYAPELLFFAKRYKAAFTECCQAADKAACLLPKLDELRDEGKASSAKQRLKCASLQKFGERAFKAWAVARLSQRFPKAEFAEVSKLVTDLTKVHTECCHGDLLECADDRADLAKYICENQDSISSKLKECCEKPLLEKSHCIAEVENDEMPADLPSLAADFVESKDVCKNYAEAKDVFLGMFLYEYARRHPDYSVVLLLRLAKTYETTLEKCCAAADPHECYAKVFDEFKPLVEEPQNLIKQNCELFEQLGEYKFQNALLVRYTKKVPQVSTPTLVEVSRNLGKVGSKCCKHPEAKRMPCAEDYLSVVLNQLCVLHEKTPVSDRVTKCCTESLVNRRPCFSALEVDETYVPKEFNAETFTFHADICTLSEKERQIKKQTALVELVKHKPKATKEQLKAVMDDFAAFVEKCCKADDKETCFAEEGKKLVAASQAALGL
Procedure: Human serum albumin (HSA) solution (32 µM) was prepared in Tris-HCl/NaCl aqueous buffer (pH = 7.4). The solution was titrated with different concentrations of complexes 1–5 in DMSO (the amount of DMSO was maintained at ca. 20% v/v). The changes in the emission intensity of the protein were followed at around 330 nm upon excitation at 275 nm after incubating the complexes for 4 min at 295 K. The Stern–Volmer quenching constants (KSV) were obtained from Equation (1), where Io and I are the emission intensities of the protein in the absence and the presence of the complexes, respectively. The […]; the KSV value was defined as the slope of the line. The Stern–Volmer constant is related to the quenching constant by Equation (2), where Kq is the quenching rate constant, and τ0 is the average lifetime of the fluorescence for free HSA (τ0 = 7 ns). The binding constant (Kb, M^−1) and the number of binding sites (n) were calculated by plotting log[Io − I/I] against Log [Au complex], where the slope equals n and the intercept is equivalent to Log Kb according to Equation (3). Gibbs free energy (∆G^0) of the binding to HSA protein can be calculated by employing Equation (4), using the binding constant (Kb, M^−1). I0/I = 1 + Ksv [Au complex](1) Ksv = Kq × τ0(2) Log(I0 − I)/I = Log Kb + n Log [Au complex](3) ∆G^0 = −R × T × Ln × Kb(4)

Row | n (number of binding sites) [3] | Ksv (Stern–Volmer quenching constant) [3] | Kq (quenching rate constant) [3] | ∆G^0 (Gibbs free energy of binding to HSA) [3] | fold increase in HSA binding affinity on introducing the o-phenolic moiety [3] | fold enhancement in HSA binding affinity on replacing triphenylphosphine with tricyclohexylphosphine [3] | Molecule | IC50 [1] | IC50 [2] | cytotoxic activity against OVCAR-3 in words ([2]; compared with cisplatin) | HSA binding constant relative to complex 3 (2-hydroxy) ([3]; ratio of Kb, complex 4 vs complex 3)
1 | 0.96 | 38.9 ×10^4 | 55.57 ×10^12 | -7.239 kcal/mol | 40 fold | – | HO–2–C6H4–N=C–4-C6H4-C≡C–Au-PPh3 [Compound 3] | 7.25 ± 0.21 µM | 9.4 ± 0.17 µM | – | –
2 | 1.16 | 2.8 ×10^4 | 4.00 ×10^12 | -7.15 kcal/mol | – | 30 fold | OHC-4-C6H4-C≡C-Au-PCy3 [Compound 2] | 14.82 ± 0.13 µM | 15.9 ± 0.53 µM | – | –
3 | – | – | – | – | – | – | N.N.[Cl][Pt][Cl] [cisplatin, reference compound] | 3.91 ± 0.2 µM | 5.89 ± 0.12 µM | – | –
4 | 0.82 | 4.7 ×10^4 | 6.71 ×10^12 | -5.07 kcal/mol | – | – | Au(C≡C-C6H4-4-CHO)(PPh3) [Compound 1] | 12.5 ± 0.43 µM | 13.7 ± 0.53 µM | – | –
5 | 1.37 | 37.1 ×10^4 | 52.96 ×10^12 | -10.27 kcal/mol | 240 fold | 170 fold | HO–2–C6H4–N=C–4-C6H4-C≡C–Au-PCy3 [Compound 5] | 7.55 ± 0.43 µM | 9.11 ± 0.12 µM | – | –

Row | Molecule | n (number of binding sites) [3] | Ksv (Stern–Volmer quenching constant) [3] | Kq (quenching rate constant) [3] | ∆G^0 (Gibbs free energy of binding to HSA) [3] | fold increase in HSA binding affinity on introducing the o-phenolic moiety [3] | fold enhancement in HSA binding affinity on replacing triphenylphosphine with tricyclohexylphosphine [3] | IC50 [1] | IC50 [2] | cytotoxic activity against OVCAR-3 in words ([2]; compared with cisplatin) | HSA binding constant relative to complex 3 (2-hydroxy) ([3]; ratio of Kb, complex 4 vs complex 3)
6 | Oc1ccc(N=Cc2ccc(C#[C][Au][PH](c3ccccc3)(c3ccccc3)c3ccccc3)cc2)cc1 [Compound 4, HO–4–C6H4–N=C–4-C6H4-C≡C–Au-PPh3] | 1.61 | 71.5 ×10^4 | 102.21 ×10^12 | -12.4 kcal/mol | – | – | 8.16 ± 0.43 µM | 5.27 ± 0.11 µM | comparable to that of cisplatin | 6400 times
